In patent publication US6613352B2, “Low-rigidity liposomal formulation” (Universite de Montreal, priority 1999, dated 2003):

Test system: Xanthomonas maltophilia
Assay: In vitro bactericidal activity, viable bacterial counts in proteose peptone
Assay type: cell-based
Conditions: free tobramycin 3,12 μg/ml, entrapped tobramycin 3,08 μg/ml, MIC >5 μg/ml
Procedure: To culture tubes containing proteose peptone (29 ml) a minimal number of 10^8 CFU of bacteria in logarithmic phase (1 ml) and of one of the following preparations (100 μl) were added at time zero: free tobramycin, control liposomes or PBS. Experiments were done in triplicate. At times 1, 3, 6, and 16 hours following the addition of antibiotic or controls, 2 ml of samples were collected and serial 10-fold dilutions were made and spread in triplicate on proteose peptone agar plates for gram negative strains and on […] for S. aureus. CFU were counted after 24-hour and 48-hourS incubations at 37° C. under 5% CO2. Counts were expressed in log CFU per ml of culture media.

## NC[C@H]1O[C@H](O[C@H]2[C@H](O)[C@@H](O[C@H]3O[C@H](CO)[C@@H](O)[C@H](N)[C@H]3O)[C@H](N)C[C@@H]2N)[C@H](N)C[C@@H]1O [Free tobramycin, tobramycin]
0 h
  Viable bacterial counts: 3.7 × 10^10 cfu
1 h
  Viable bacterial counts: 3.00 × 10^12 cfu
3 h
  Viable bacterial counts: 8.20 × 10^14 cfu
6 h
  Viable bacterial counts: 7.80 × 10^16 cfu
